Experimental data as given in patent US10428027B2, “Sulfinylphenyl or sulfonimidoylphenyl benzazepines” (Hoffmann La-Roche Inc., priority 2015, dated 2019).

Legend:
[1] = target: T1, human TLR8 (Homo sapiens, UniProt Q9NR97); assay: HEK-Blue human TLR8 cells, NF-κB SEAP reporter assay; type: cell-based; settings: stimulation for 20 hours, SEAP reporter read at 640 nm
T1 construct: host or cells: HEK-Blue human TLR8 cells (HEK293-derived; own knowledge: stably transfected with the human TLR8 gene)
T1 sequence (Q9NR97 27-1041): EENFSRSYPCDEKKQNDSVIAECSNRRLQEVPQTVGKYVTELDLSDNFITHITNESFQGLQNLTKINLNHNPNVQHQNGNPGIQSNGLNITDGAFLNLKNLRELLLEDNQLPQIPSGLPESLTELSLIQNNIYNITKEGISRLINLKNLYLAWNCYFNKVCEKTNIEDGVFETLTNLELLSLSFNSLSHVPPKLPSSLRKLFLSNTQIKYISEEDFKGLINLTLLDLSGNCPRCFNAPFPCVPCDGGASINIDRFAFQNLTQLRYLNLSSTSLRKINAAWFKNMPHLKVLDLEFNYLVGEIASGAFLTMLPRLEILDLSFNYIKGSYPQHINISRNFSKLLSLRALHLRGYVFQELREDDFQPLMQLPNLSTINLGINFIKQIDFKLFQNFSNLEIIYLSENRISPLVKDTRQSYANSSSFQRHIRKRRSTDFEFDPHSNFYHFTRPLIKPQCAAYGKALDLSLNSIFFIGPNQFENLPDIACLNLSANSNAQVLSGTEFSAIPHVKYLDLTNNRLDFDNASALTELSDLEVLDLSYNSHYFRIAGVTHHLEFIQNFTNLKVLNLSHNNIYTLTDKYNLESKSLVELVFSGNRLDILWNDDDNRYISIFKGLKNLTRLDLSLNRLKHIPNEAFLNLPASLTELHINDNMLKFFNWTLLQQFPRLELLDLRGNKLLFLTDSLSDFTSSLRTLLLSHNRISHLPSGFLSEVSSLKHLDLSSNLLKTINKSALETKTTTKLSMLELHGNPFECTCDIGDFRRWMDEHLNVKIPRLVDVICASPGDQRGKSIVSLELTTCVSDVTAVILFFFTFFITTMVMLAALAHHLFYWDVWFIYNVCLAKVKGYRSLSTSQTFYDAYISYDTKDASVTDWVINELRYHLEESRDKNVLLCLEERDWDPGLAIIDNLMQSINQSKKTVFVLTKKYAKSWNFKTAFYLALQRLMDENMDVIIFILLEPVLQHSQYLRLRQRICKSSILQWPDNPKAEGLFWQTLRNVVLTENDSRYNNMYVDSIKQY
Source text: (§1) For TLR8 and TLR7 activity testing, HEK-Blue human TLR8 or TLR7 cells (Invivogen, San Diego, Calif., USA) are used, respectively. These cells are designed for studying the stimulation of human TLR8 or TLR7 by monitoring the activation of NF-κB. A SEAP (secreted embryonic alkaline phosphatase) reporter gene is placed under the control of the IFN-b minimal promoter fused to five NF-κB and AP-1-binding sites. Therefore the reporter expression is regulated by the NF-κB promoter upon stimulation of human TLR8 or TLR7 for 20 hours. The cell culture supernatant SEAP reporter activity was determined using Quanti Blue kit (Invivogen, San Diego, Ca, USA) at a wavelength of 640 nm, a detection medium that turns purple/blue in the presence of alkaline phosphatase.

[2] = target: T2, human TLR7 (Homo sapiens, UniProt Q9NYK1); assay: HEK-Blue human TLR7 cells, NF-κB SEAP reporter assay; type: cell-based; settings: stimulation for 20 hours, SEAP reporter read at 640 nm
T2 construct: host or cells: HEK-Blue human TLR7 cells (HEK293-derived; own knowledge: stably transfected with the human TLR7 gene)
T2 sequence (Q9NYK1 27-1049): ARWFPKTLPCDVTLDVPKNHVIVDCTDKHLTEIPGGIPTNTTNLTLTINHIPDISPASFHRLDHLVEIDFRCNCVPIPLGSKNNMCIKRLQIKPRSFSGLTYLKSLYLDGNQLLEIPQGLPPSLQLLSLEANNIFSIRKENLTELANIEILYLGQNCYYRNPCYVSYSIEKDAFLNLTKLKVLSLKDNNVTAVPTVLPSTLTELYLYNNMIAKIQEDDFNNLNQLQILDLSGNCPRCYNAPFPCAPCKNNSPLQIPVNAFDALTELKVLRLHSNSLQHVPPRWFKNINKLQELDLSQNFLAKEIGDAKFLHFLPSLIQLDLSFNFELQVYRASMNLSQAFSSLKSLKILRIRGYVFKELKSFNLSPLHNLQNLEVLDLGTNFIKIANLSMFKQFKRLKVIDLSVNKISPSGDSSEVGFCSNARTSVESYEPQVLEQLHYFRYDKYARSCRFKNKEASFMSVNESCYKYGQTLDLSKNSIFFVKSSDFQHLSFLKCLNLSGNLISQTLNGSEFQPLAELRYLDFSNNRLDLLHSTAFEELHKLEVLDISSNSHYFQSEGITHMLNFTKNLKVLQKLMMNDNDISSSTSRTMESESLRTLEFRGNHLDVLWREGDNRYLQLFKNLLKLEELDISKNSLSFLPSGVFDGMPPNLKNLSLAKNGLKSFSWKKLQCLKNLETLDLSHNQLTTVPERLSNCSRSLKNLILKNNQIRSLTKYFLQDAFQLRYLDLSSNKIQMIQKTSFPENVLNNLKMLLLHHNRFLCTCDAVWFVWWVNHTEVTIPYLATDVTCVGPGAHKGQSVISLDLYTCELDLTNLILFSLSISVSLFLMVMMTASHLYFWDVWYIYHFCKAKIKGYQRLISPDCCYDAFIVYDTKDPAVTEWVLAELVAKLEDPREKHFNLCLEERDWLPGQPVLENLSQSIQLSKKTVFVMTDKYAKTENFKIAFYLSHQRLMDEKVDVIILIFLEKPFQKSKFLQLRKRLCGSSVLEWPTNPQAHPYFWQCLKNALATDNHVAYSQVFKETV
Source text: as §1

| Structure (SMILES) | EC50 [1] [nM] | EC50 [2] [nM] |
| --- | --- | --- |
| CCCN(CCC)C(=O)C1=Cc2ccc(-c3cncc([S+](C)[O-])c3)cc2N=C(N)C1 (stereo not shown) [Example 4, 2-Amino-8-(5-methylsulfinyl-3-pyridyl)-N,N-dipropyl-3H-1-benzazepine-4-carboxamide] | 8 | 2400 |
| CCCN(CCC)C(=O)C1=Cc2ccc(-c3cccc(S(C)(=O)=NCCOCCO)c3)cc2N=C(N)C1 (stereo not shown) [Example 3, 2-Amino-8-[3-[N-[2-(2-hydroxyethoxy)ethyl]-S-methyl-sulfonimidoyl]phenyl]-N,N-dipropyl-3H-1-benzazepine-4-carboxamide] | 11 | 55000 |
| CCCN(CCC)C(=O)C1=Cc2ccc(-c3cncc(S(C)(=N)=O)c3)cc2N=C(N)C1 (stereo not shown) [Example 6, 2-Amino-8-[5-(methylsulfonimidoyl)-3-pyridyl]-N,N-dipropyl-3H-1-benzazepine-4-carboxamide] | 28 | 14800 |
| CCCN(CCC)C(=O)C1=Cc2ccc(-c3ccc([S+](C)[O-])cc3)cc2N=C(N)C1 (stereo not shown) [Example 1, 2-Amino-8-(4-methylsulfinylphenyl)-N,N-dipropyl-3H-1-benzazepine-4-carboxamide] | 26 | 19000 |
| CCCN(CCC)C(=O)C1=Cc2ccc(-c3ccc(S(C)(=N)=O)cc3)cc2N=C(N)C1 (stereo not shown) [Example 2, 2-Amino-8-[4-(methylsulfonimidoyl)phenyl]-N,N-dipropyl-3H-1-benzazepine-4-carboxamide] | 25 | 25000 |
| CCCN(CCC)C(=O)C1=Cc2ccc(-c3cccc([S+](C)[O-])c3)cc2N=C(N)C1 (stereo not shown) [Example 5, 2-Amino-8-(3-methylsulfinylphenyl)-N,N-dipropyl-3H-1-benzazepine-4-carboxamide] | 4 | 12100 |

Second part, the molecule after the results:

| EC50 [1] [nM] | EC50 [2] [nM] | Structure (SMILES) |
| --- | --- | --- |
| 21 | 23000 | CCCN(CCC)C(=O)C1=Cc2ccc(-c3ccc([S+]([O-])CC)cc3)cc2N=C(N)C1 (stereo not shown) [Example 8, 2-Amino-8-(4-ethylsulfinylphenyl)-N,N-dipropyl-3H-1-benzazepine-4-carboxamide] |
| 13 | 15400 | CCCN(CCC)C(=O)C1=Cc2ccc(-c3cccc(S(C)(=N)=O)c3)cc2N=C(N)C1 (stereo not shown) [Example 7, 22-Amino-8-[3-(methylsulfonimidoyl)phenyl]-N,N-dipropyl-3H-1-benzazepine-4-carboxamide] |
| 25 | 32000 | CCCN(CCC)C(=O)C1=Cc2ccc(-c3ccc(S(=N)(=O)CC)cc3)cc2N=C(N)C1 (stereo not shown) [Example 9, 2-Amino-8-[4-(ethylsulfonimidoyl)phenyl]-N,N-dipropyl-3H-1-benzazepine-4-carboxamide] |
| 8 | 16000 | CCCN(CCC)C(=O)C1=Cc2ccc(-c3cccc([S+]([O-])CC)c3)cc2N=C(N)C1 (stereo not shown) [Example 10, 2-Amino-8-(3-ethylsulfinylphenyl)-N,N-dipropyl-3H-1-benzazepine-4-carboxamide] |
| 15 | 39000 | CCCN(CCC)C(=O)C1=Cc2ccc(-c3cccc(S(=N)(=O)CC)c3)cc2N=C(N)C1 (stereo not shown) [Example 11, 2-Amino-8-[3-(ethylsulfonimidoyl)phenyl]-N,N-dipropyl-3H-1-benzazepine-4-carboxamide] |
